Measured values reported in patent US9079866B2, “Flap modulators” (JANSSEN PHARMACEUTICA NV, priority 2013, dated 2015).
Structures can show the parent of a compound that is named as a salt. Where two headings read alike, the source gives them in different places.

How the values were obtained:
human FLAP = human FLAP (Homo sapiens (Human), UniProt P20292); assay: FLAP binding assay (HTRF format)
Summary of the method: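 Samples were run in duplicate on each of two assay plates, the results were averaged, and the signal was expressed as an HTRF ratio.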

[1] = system: leukotriene pathway in human whole blood (LTB4 levels); assay: Human whole blood assay (A23187-stimulated LTB4); type: cell-based; conditions: Homo sapiens, read-out: LTB4 IC50 1:1
Summary of the method: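 Single-replicate data from at least one healthy donor: compound pre-incubated 15 min at 37° Celsius in 1:1 RPMI-diluted heparinised blood, followed by 30 min calcium ionophore A23187 (7 μg/mL) challenge at 37° Celsius. LTB4 in plasma quantified by kit; IC50 via 4-parameter equation.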

[2] = read-out: FLAP Binding wild type HTRF Ki
[3] = human whole blood diluted 1:1 in RPMI, A23187-stimulated LTB4
[4] = human whole blood diluted 1:1, A23187-stimulated
[5] = human FLAP wild type, HTRF format, average of two plates, duplicates

human FLAP, sequence (P20292 whole entry): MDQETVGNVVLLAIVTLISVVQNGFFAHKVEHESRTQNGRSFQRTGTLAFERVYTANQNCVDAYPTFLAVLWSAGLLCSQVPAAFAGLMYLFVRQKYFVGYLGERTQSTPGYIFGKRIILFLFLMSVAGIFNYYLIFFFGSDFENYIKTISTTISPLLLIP

With `CC(C)(C)[C@H](CO)NS(=O)(=O)c1ccccc1-c1ccc(-c2cnc(N)nc2)c(F)c1` [Example 269, 4′-(2-Aminopyrimidin-5-yl)-3′-fluoro-N-[(1R)-1-(hydroxymethyl)-2,2-dimethylpropyl]biphenyl-2-sulfonamide trifluoroacetic acid salt] the Ki (human FLAP; [2]) was 15 nM and the IC50 [1, 3] was 87 nM.
With `COc1nc(-c2ccc(-c3ccccc3S(=O)(=O)NC(C)(C)C)cc2F)cnc1N` [Example 433, 4′-(5-Amino-6-methoxypyrazin-2-yl)-N-tert-butyl-3′-fluorobiphenyl-2-sulfonamide] the Ki (human FLAP; wild type FLAP, HTRF format) was 1 nM and the IC50 [1, 4] was 25 nM.
For `CC(C)(C)[C@@H](CO)NS(=O)(=O)c1ccccc1-c1ccc(-c2cnc(N)cn2)c(F)c1` [Example 149, (S)-4′-(5-Aminopyrazin-2-yl)-3′-fluoro-N-(1-hydroxy-3,3-dimethylbutan-2-yl)-[1,1′-biphenyl]-2-sulfonamide], the Ki (human FLAP; [5]) was 5 nM and the IC50 [1, 3] was 82 nM.
With `Nc1cnc(-c2ccc(-c3ccccc3S(=O)(=O)N3CCCC3)cc2F)cn1` [Example 48, 5-[3-Fluoro-2′-(pyrrolidin-1-ylsulfonyl)biphenyl-4-yl]pyrazin-2-amine] the Ki (human FLAP; [5]) was 11 nM and the IC50 [1, 3] was 158 nM.
In the case of `C[C@H]1CNCCN1S(=O)(=O)c1ccccc1-c1ccc(-c2cnc(N)cn2)c(F)c1` [Example 144, (S)-5-(3-Fluoro-2′-((2-methylpiperazin-1-yl)sulfonyl)-[1,1′-biphenyl]-4-yl)pyrazin-2-amine], the Ki (human FLAP; [5]) is reported as 15 nM and the IC50 [1, 3] is reported as 97 nM.
Work on `Nc1cnc(-c2ccc(-c3ccccc3Oc3cc(C4CC4)ncn3)cc2F)cn1` [Example 636, 5-{2′-[(6-Cyclopropylpyrimidin-4-yl)oxy]-3-fluorobiphenyl-4-yl}pyrazin-2-amine] yielded a Ki (human FLAP; wild type FLAP, HTRF format) of 4.6 nM and an IC50 [1, 4] of 107 nM.
Work on `Nc1cnc(-c2ccc(-c3ccccc3Sc3ccncn3)cc2F)cn1` [Example 743, 5-(3-Fluoro-2′-(pyrimidin-4-ylthio)-[1,1′-biphenyl]-4-yl)pyrazin-2-amine] yielded a Ki (human FLAP; wild type FLAP, HTRF format) of 1.6 nM and an IC50 [1, 4] of 21.6 nM.
`CC(C)(CO)CNS(=O)(=O)c1ccccc1-c1ccc(-c2cnc(N)nc2)c(F)c1` [Example 251, 4′-(2-Aminopyrimidin-5-yl)-3′-fluoro-N-(3-hydroxy-2,2-dimethylpropyl)biphenyl-2-sulfonamide] showed a Ki (human FLAP; [5]) of 5 nM and an IC50 [1, 3] of 68 nM.
For `CS(=O)(=O)Nc1ccccc1-c1ccc(-c2cnc(N)cn2)c(F)c1` [Example 2, N-[4′-(5-Aminopyrazin-2-yl)-3′-fluorobiphenyl-2-yl]methanesulfonamide], the Ki (human FLAP; [5]) was 286 nM and the IC50 [1, 3] was 358 nM.
`Nc1ncc(-c2ccc(-c3ccccc3-c3cnccn3)cc2F)cn1` [Example 839, 5-(3-Fluoro-2′-pyrazin-2-ylbiphenyl-4-yl)pyrimidin-2-amine] showed a Ki (human FLAP; wild type FLAP, HTRF format) of 830 nM and an IC50 [1, 4] of 2790 nM.
For `Nc1ccnc(Sc2ccccc2-c2ccc(-c3cnc(N)nc3)c(F)c2)n1` [Example 330, 5-{2′-[(4-Aminopyrimidin-2-yl)sulfanyl]-3-fluorobiphenyl-4-yl}pyrimidin-2-amine formate salt], the Ki (human FLAP; [2]) was 12 nM and the IC50 [1, 3] was 88 nM.
Compound `CN1CCCC[C@@H](NS(=O)(=O)c2ccccc2-c2ccc(-c3cnc(N)cn3)c(F)c2)C1=O` [Example 29, (S)-4′-(5-Aminopyrazin-2-yl)-3′-fluoro-N-[(3S)-1-methyl-2-oxoazepan-3-yl]biphenyl-2-sulfonamide] has a Ki (human FLAP; [5]) of 59 nM and an IC50 [1, 3] of 30 nM.
`Nc1nnc(-c2ccc(-c3ccccc3S(=O)(=O)N3CCS(=O)(=O)CC3)cc2F)s1` [Example 440, 4-((4′-(5-Amino-1,3,4-thiadiazol-2-yl)-3′-fluoro-[1,1′-biphenyl]-2-yl)sulfonyl)thiomorpholine 1,1-dioxide] showed a Ki (human FLAP; wild type FLAP, HTRF format) of 31 nM and an IC50 [1, 4] of 215 nM.
`C[C@@H](CO)NS(=O)(=O)c1ccccc1-c1ccc(-c2cnc(N)nc2)c(F)c1` [Example 286, 4′-(2-Aminopyrimidin-5-yl)-3′-fluoro-N-[(1S)-2-hydroxy-1-methylethyl]biphenyl-2-sulfonamide trifluoroacetic acid salt] was tested, and the Ki (human FLAP; [5]) was 142 nM and the IC50 [1, 3] was 206 nM.
Work on `N#CCCN(C1CC1)S(=O)(=O)c1ccccc1-c1ccc(-c2cnc(N)cn2)c(F)c1` [Example 172, 4′-(5-Aminopyrazin-2-yl)-N-(2-cyanoethyl)-N-cyclopropyl-3′-fluorobiphenyl-2-sulfonamide] yielded a Ki (human FLAP; [5]) of 4 nM and an IC50 [1, 3] of 20 nM.
For `Nc1ncc(-c2ccc(-c3ccccc3S(=O)(=O)N3CCS(=O)(=O)CC3)cc2F)cn1` [Example 264, 5-{2′-[(1,1-Dioxidothiomorpholin-4-yl)sulfonyl]-3-fluorobiphenyl-4-yl}pyrimidin-2-amine trifluoroacetic salt], the Ki (human FLAP; [5]) was 28 nM and the IC50 [1, 3] was 144 nM.
`Nc1ncc(-c2ccc(-c3ccccc3S(=O)(=O)N3CCCC(F)(F)C3)cn2)cn1` [Example 679, 5-(5-{2-[(3,3-Difluoropiperidin-1-yl)sulfonyl]phenyl}pyridin-2-yl)pyrimidin-2-amine trifluoroacetic acid salt] gave a Ki (human FLAP; [2]) of 132 nM and an IC50 [1, 4] of 205 nM.
With `C[C@@H](CO)NS(=O)(=O)c1ccccc1-c1ccc(-c2cnc3[nH]ccc3c2)c(F)c1` [Example 362, 3′-Fluoro-N-[(1S)-2-hydroxy-1-methylethyl]-4′-(1H-pyrrolo[2,3-b]pyridin-5-yl)biphenyl-2-sulfonamide] the Ki (human FLAP; [5]) was 1 nM and the IC50 [1, 3] was 47 nM.
Compound `N#Cc1cccc(Oc2ccccc2-c2ccc(-c3cnc(N)cn3)c(F)c2)n1` [Example 619, 6-{[4′-(5-Aminopyrazin-2-yl)-3′-fluorobiphenyl-2-yl]oxy}pyridine-2-carbonitrile] has a Ki (human FLAP; wild type FLAP, HTRF format) of 3.4 nM and an IC50 [1, 4] of 45.1 nM.
With `COc1cnc(Oc2ccccc2-c2ccc(-c3cnc(N)cn3)c(F)c2)nc1` [Example 549, 5-{3-Fluoro-2′-[(5-methoxypyrimidin-2-yl)oxy]biphenyl-4-yl}pyrazin-2-amine] the Ki (human FLAP; wild type FLAP, HTRF format) was 9 nM and the IC50 [1, 4] was 123 nM.
`Nc1cnc(-c2ccc(-c3ccccc3-c3cncnc3)cc2F)cn1` [Example 848, 5-(3-Fluoro-2′-pyrimidin-5-ylbiphenyl-4-yl)pyrazin-2-amine] was tested, and the Ki (human FLAP; wild type FLAP, HTRF format) was 96.8 nM and the IC50 [1, 4] was 322 nM.
Compound `CC(C)(C)NS(=O)(=O)c1ccccc1-c1ccc(-c2ccc3[nH]cnc3c2)c(F)c1` [Example 422, 4′-(1H-Benzimidazol-5-yl)-N-tert-butyl-3′-fluorobiphenyl-2-sulfonamide] has a Ki (human FLAP; wild type FLAP, HTRF format) of 3 nM and an IC50 [1, 4] of 146 nM.
`Nc1cnc(-c2ccc(-c3ccccc3S(=O)(=O)N3CCCC(N)C3)cc2F)cn1` (racemic) [Example 74, racemic 5-{2′-[(3-Aminopiperidin-1-yl)sulfonyl]-3-fluorobiphenyl-4-yl}pyrazin-2-amine] showed a Ki (human FLAP; [5]) of 6 nM and an IC50 [1, 3] of 61 nM.
For `NC(=O)C1CCN1S(=O)(=O)c1ccccc1-c1ccc(-c2cnc(N)cn2)c(F)c1` (racemic) [Example 139, Racemic 1-{[4′-(5-Aminopyrazin-2-yl)-3′-fluorobiphenyl-2-yl]sulfonyl}azetidine-2-carboxamide], the Ki (human FLAP; [5]) was 133 nM and the IC50 [1, 3] was 341 nM.
With `Nc1cnc(-c2ccc(-c3ccc(C(F)(F)F)cc3C(=O)O)cc2F)cn1` [Example 603, 4′-(5-Aminopyrazin-2-yl)-3′-fluoro-4-(trifluoromethyl)biphenyl-2-carboxylic acid] the Ki (human FLAP; wild type FLAP, HTRF format) was 27.6 nM and the IC50 [1, 4] was > 10000 nM.
For `Nc1ncc(-c2ccc(-c3ccccc3S(=O)(=O)N[C@H]3CCNC3=O)cc2F)cn1` [Example 263, 4′-(2-Aminopyrimidin-5-yl)-3′-fluoro-N-[(3S)-2-oxopyrrolidin-3-yl]biphenyl-2-sulfonamide], the Ki (human FLAP; [5]) was 169 nM and the IC50 [1, 3] was 207 nM.
